One assay addresses T1, SIRT1 (Homo sapiens, UniProt Q96EB6).
T1 sequence (Q96EB6 1-747): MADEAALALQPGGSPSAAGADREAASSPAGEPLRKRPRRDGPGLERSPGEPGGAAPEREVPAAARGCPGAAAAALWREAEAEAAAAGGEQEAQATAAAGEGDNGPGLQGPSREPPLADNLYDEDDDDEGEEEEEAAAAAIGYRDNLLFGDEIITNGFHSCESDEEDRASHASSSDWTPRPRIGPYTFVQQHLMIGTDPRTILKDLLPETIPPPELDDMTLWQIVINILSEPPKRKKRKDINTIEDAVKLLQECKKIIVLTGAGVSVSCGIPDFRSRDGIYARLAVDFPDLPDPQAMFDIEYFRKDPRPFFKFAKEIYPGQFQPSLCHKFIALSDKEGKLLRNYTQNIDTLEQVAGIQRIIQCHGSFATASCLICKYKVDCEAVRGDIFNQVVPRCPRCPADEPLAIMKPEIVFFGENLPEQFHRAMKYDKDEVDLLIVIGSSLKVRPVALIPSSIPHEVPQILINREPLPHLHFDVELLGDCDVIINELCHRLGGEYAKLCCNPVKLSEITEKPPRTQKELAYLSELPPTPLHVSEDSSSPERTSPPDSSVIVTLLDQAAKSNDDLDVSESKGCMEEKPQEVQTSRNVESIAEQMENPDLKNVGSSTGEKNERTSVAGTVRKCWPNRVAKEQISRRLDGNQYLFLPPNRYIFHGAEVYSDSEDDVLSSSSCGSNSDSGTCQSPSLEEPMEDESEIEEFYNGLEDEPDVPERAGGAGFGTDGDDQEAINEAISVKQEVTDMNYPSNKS
Briefly: SIRT1 deacetylation of Trp 5-mer peptide, OAADPr mass spec assay. To be noted: Trp SIRT1_IC50, Trp 5-mer peptide; class symbols.

The target of a further assay is T2, SIRT3 (Homo sapiens, UniProt Q9NTG7).
T2 sequence (Q9NTG7 102-399): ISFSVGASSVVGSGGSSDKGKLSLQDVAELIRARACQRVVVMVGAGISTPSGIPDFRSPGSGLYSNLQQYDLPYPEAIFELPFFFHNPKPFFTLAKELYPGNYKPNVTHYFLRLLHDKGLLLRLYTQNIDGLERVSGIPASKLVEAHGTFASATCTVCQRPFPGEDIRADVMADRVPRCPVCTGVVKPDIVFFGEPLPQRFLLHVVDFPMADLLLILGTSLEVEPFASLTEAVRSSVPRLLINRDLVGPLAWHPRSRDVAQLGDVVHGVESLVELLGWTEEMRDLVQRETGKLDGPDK
Briefly: SIRT3 deacetylation of Trp 5-mer peptide, OAADPr mass spec assay. The note with it: Trp SIRT3_IC50, Trp 5-mer peptide; class symbols.

In a further assay the target is T3, SIRT2 (Homo sapiens, UniProt Q8IXJ6).
T3 sequence (Q8IXJ6 1-389): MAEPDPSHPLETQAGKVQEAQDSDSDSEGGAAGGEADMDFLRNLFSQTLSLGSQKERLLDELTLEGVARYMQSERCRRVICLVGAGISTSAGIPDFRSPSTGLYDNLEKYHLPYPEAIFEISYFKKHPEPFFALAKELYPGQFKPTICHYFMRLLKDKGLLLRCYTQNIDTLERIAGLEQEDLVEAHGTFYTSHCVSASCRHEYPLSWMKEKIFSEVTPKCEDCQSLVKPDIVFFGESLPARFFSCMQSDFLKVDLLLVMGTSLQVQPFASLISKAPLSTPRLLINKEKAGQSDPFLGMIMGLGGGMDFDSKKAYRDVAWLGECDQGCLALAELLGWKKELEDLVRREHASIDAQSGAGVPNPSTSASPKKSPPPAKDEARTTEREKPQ
Briefly: SIRT2 deacetylation of Trp 5-mer peptide, OAADPr mass spec assay. It is filed as biochemical. Also noted: His-SIRT2(1-389). The note with it: Trp 5-mer peptide; class symbols; read-out: Trp SIRT2_IC50.

Description for SIRT1: (§1) All assays were performed at room temperature in reaction buffer (50 mM HEPES, pH 7.5, 150 mM NaCl, 1 mM DTT, 0.05% BSA). […] To prepare the assays for analysis, 20 μL of reaction volume was mixed in 80 μL of 50:50 acetonitrile:methanol mixture. […] Peak data was integrated using RapidFire Integrator software (Agilent, Santa Clara, Calif.).
Description for SIRT3: as §1

`NC(=O)c1cc2ncnc(N3CCC(CCN4CCCC4)CC3)c2o1` [Compound 87]: the results for the IC50 against SIRT1, on SIRT3 and at SIRT2 were 1000 to 10000 nM, < 1000 nM and < 1000 nM, respectively.

As for `NC(=O)c1cc2ncnc(N3CCC(CCNC(=O)C4CCCC4)CC3)c2o1` [Compound 88], the IC50 on SIRT1, against SIRT3 and on SIRT2 was < 1000 nM throughout.

On to `CS(=O)(=O)NCCN1CCN(c2ncnc3cc(C(N)=O)oc23)CC1` [Compound 89], for which the IC50 at SIRT1 is 1000 to 10000 nM; on SIRT3, < 1000 nM; at SIRT2 it was < 1000 nM.

For the compound `NC(=O)c1cc2ncnc(N3CCC(CN4CCCC4)CC3)c2o1` [Compound 90], the IC50 is 1000 to 10000 nM against SIRT1, < 1000 nM at SIRT3 and 1000 to 10000 nM on SIRT2.

For the compound `COCCC1CCN(c2ncnc3cc(C(N)=O)oc23)CC1` [Compound 91], the IC50 at SIRT1, against SIRT3 and on SIRT2 was 1000 to 10000 nM in each case.

For `NC(=O)c1cc2ncnc(N3CCN(CCN4CCCC4)CC3)c2o1` [Compound 92], the IC50 on SIRT1 is 1000 to 10000 nM; on SIRT3, < 1000 nM; at SIRT2, < 1000 nM.

`NC(=O)c1cc2ncnc(N3CCC(CCO)CC3)c2o1` [Compound 93]: the IC50 is 1000 to 10000 nM against SIRT1, < 1000 nM against SIRT3 and < 1000 nM at SIRT2.

In the case of `CC(C)(C)OC(=O)N1CCC(C2CCN(c3ncnc4cc(C(N)=O)oc34)CC2)CC1` [Compound 94, tert-butyl 1′-(6-carbamoylfuro[3,2-d]pyrimidin-4-yl)-[4,4′-bipiperidine]-1-carboxylate], the figures for the IC50 against SIRT1, against SIRT3 and on SIRT2 were 1000 to 10000 nM, > 10000 nM and 1000 to 10000 nM, respectively.

Take `NCCC1CCN(c2ncnc3cc(C(N)=O)oc23)CC1` [Compound 95, 4-(4-(2-aminoethyl)piperidin-1-yl)furo[3,2-d]pyrimidine-6-carboxamide]: the IC50 on SIRT1 was 1000 to 10000 nM; at SIRT3 it was 1000 to 10000 nM; at SIRT2, < 1000 nM.

Consider `NCCN1CCN(c2ncnc3cc(C(N)=O)oc23)CC1` [Compound 96], for which the IC50 at SIRT1 was > 10000 nM; on SIRT3, 1000 to 10000 nM; at SIRT2, 1000 to 10000 nM.

For `CC(C)(C)C(=O)NCCN1CCN(c2ncnc3cc(C(N)=O)oc23)CC1` [Compound 97], the IC50 at SIRT1, at SIRT3 and on SIRT2 was < 1000 nM throughout.

As for `NC(=O)c1cc2ncnc(N3CCN(CCNC(=O)C4CCCC4)CC3)c2o1` [Compound 98], the IC50 against SIRT1, against SIRT3 and at SIRT2 was < 1000 nM throughout.

For the compound `CS(=O)(=O)NCCC1CCN(c2ncnc3cc(C(N)=O)oc23)CC1` [Compound 99], the IC50 against SIRT1, on SIRT3 and at SIRT2 was < 1000 nM throughout.

Regarding `NC(=O)c1cc2ncnc(N3CCC(C4CCNCC4)CC3)c2o1` [Compound 100, 4-([4,4′-bipiperidin]-1-yl)furo[3,2-d]pyrimidine-6-carboxamide], the IC50 against SIRT1 was > 10000 nM; against SIRT3, 1000 to 10000 nM; at SIRT2, > 10000 nM.

Regarding `CC(C)(C)OC(=O)NCCC1CCN(c2ccnc3cc(C(N)=O)sc23)CC1` [Compound 103, tert-butyl (2-(1-(2-carbamoylthieno[3,2-b]pyridin-7-yl)piperidin-4-yl)ethyl)carbamate], the IC50 against SIRT1, at SIRT3 and at SIRT2 was < 1000 nM throughout.

Turning to `NCCC1CCN(c2ccnc3cc(C(N)=O)sc23)CC1` [Compound 104, 7-(4-(2-aminoethyl)piperidin-1-yl)thieno[3,2-b]pyridine-2-carboxamide], the IC50 is 1000 to 10000 nM against SIRT1, < 1000 nM against SIRT3 and < 1000 nM at SIRT2.

On to `NC(=O)c1cc2nccc(N3CCC(CN4CCCC4)CC3)c2s1` [Compound 105], for which the figures for the IC50 against SIRT1, on SIRT3 and at SIRT2 were 1000 to 10000 nM, < 1000 nM and < 1000 nM, respectively.

`CC(C)(C)C(=O)NCCC1CCN(c2ncc(Br)c3cc(C(N)=O)sc23)CC1` [Compound 112, 4-bromo-7-(4-(2-pivalamidoethyl)piperidin-1-yl)thieno[2,3-c]pyridine-2-carboxamide]: the results for the IC50 on SIRT1, against SIRT3 and at SIRT2 were 1000 to 10000 nM, > 10000 nM and 1000 to 10000 nM, respectively.

Take `Cc1c(C(N)=O)sc2c(N3CCC(CCNC(=O)OC(C)(C)C)CC3)ncnc12` [Compound 116, tert-butyl (2-(1-(6-carbamoyl-7-methylthieno[3,2-d]pyrimidin-4-yl)piperidin-4-yl)ethyl)carbamate]: the IC50 against SIRT1, on SIRT3 and at SIRT2 was < 1000 nM in each case.

On to `Cc1c(C(N)=O)sc2c(N3CCC(CCN)CC3)ncnc12` [Compound 117, 4-(4-(2-aminoethyl)piperidin-1-yl)-7-methylthieno[3,2-d]pyrimidine-6-carboxamide], for which the IC50 is > 10000 nM against SIRT1, 1000 to 10000 nM against SIRT3 and 1000 to 10000 nM on SIRT2.

For `NCCNC(=O)c1cccc(C(=O)NCCN2CCN(c3ncnc4cc(C(N)=O)sc34)CC2)c1` [Compound 127, N1-(2-aminoethyl)-N3-(2-(4-(6-carbamoylthieno[3,2-d]pyrimidin-4-yl)piperazin-1-yl)ethyl)isophthalamide], the IC50 at SIRT1, at SIRT3 and at SIRT2 was < 1000 nM throughout.

`NC(=O)c1cc2ncnc(N3CCC(CN4CCCC(C(F)(F)F)C4)CC3)c2s1` (stereo not drawn) [Compound 131, 4-(4-((3-(trifluoromethyl)piperidin-1-yl)methyl)piperidin-1-yl)thieno[3,2-d]pyrimidine-6-carboxamide]: the IC50 on SIRT1, against SIRT3 and on SIRT2 was < 1000 nM throughout.

In the case of `NC(=O)c1cc2ncnc(N3CCC(CN4CCCC4C(F)(F)F)CC3)c2s1` (stereo not drawn) [Compound 132], the IC50 at SIRT1, on SIRT3 and on SIRT2 was < 1000 nM in each case.

With `CCNC(=O)c1cc(Br)cc(C(=O)NCCC2CCN(c3ncnc4cc(C(N)=O)sc34)CC2)c1` [Compound 136, 5-bromo-N^1-(2-(1-(6-carbamoylthieno[3,2-d]pyrimidin-4-yl)piperidin-4-yl)ethyl)-N^3-ethylisophthalamide], the IC50 on SIRT1, on SIRT3 and on SIRT2 was < 1000 nM throughout.

`Cc1nc(N2CCC(CCNC(=O)OC(C)(C)C)CC2)c2sc(C(N)=O)cc2n1` [Compound 145, tert-butyl (2-(1-(6-carbamoyl-2-methylthieno[3,2-d]pyrimidin-4-yl)piperidin-4-yl)ethyl)carbamate]: the values for the IC50 against SIRT1, on SIRT3 and on SIRT2 were 1000 to 10000 nM, < 1000 nM and < 1000 nM, respectively.

Take `Cc1nc(N2CCC(CCN3CCCC3)CC2)c2sc(C(N)=O)cc2n1` [Compound 146]: the IC50 was 1000 to 10000 nM against SIRT1, < 1000 nM on SIRT3 and 1000 to 10000 nM on SIRT2.

For `Cc1nc(N2CCC(CN3CCCC3)CC2)c2sc(C(N)=O)cc2n1` [Compound 147], the IC50 against SIRT1 is > 10000 nM; on SIRT3, 1000 to 10000 nM; on SIRT2, 1000 to 10000 nM.

Take `COCCC1CCN(c2nc(C)nc3cc(C(N)=O)sc23)CC1` [Compound 148]: the IC50 against SIRT1, on SIRT3 and on SIRT2 was 1000 to 10000 nM in each case.

(Values after patent publication US20160002273A1, “THIENO[3,2-D]PYRIMIDINE-6-CARBOXAMIDES AND ANALOGUES AS SIRTUIN MODULATORS” (GLAXOSMITHKLINE LLC, priority 2013, published 2016).)
